Eleven molecules from ChEMBL document CHEMBL1201862, “PubChem BioAssay data set” (2004) can be followed below.

Structures are written as SMILES. Where a name gives a salt, the structure may show the parent alone.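 Exposure lasted 48 hours, with cells grown in 96-well plates and compounds tested at five concentrations. Abbreviation: GI50, concentration required for 50% inhibition of growth.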 Calls of active or inactive are those of the source. Rule as the data show it: active = GI50 up to about 1.1 µM and inactive = higher.

Among the test systems are A498; CCRF-CEM; HCT-15; HOP-92; MCF7; MDA-N; MOLT-4; NCI/ADR-RES; OVCAR-4; OVCAR-5; OVCAR-8; PC-3; RXF 393; SF-539; SK-MEL-5; SK-OV-3; SNB-19; UACC-62; NCI-H522; SF-268.
What all share (test): inhibition of tumour cell growth, NCI panel, 48 h

With `C#CCOCCCC(=O)O`, the GI50 in the assay with A498 was > 100 µM (inactive); in the assay on CCRF-CEM, > 100 µM (inactive); with HCT-15 it was greater than 100 µM; in the assay on HOP-92, > 100 µM (inactive); in the assay on MCF7, > 100 µM (inactive); in the assay on MDA-N, > 100 µM (inactive). Moreover, the GI50 in the assay on MOLT-4, in the assay with NCI/ADR-RES, with OVCAR-4, with OVCAR-5, with OVCAR-8 and in the assay on PC-3 was > 100 µM (inactive) throughout. The GI50 in the assay on RXF 393, in the assay on SF-539, with SK-MEL-5, in the assay on SK-OV-3, in the assay with SNB-19 and with UACC-62 was > 100 µM (inactive) in each case.

On to `COc1ccc(OC)c2c(C)ccnc12`, for which the GI50 is 56.8 µM (inactive) with A498; 5.25 µM (inactive) in the assay on CCRF-CEM; 4.25 µM in the assay with HCT-15; 18.6 µM (inactive) with HOP-92; 9.04 µM (inactive) in the assay on MCF7; 26.3 µM (inactive) with MDA-N. Also, the GI50 with NCI-H522 is 4.1 µM (inactive); in the assay with NCI/ADR-RES it was 12.9 µM (inactive); with OVCAR-4, 9.77 µM (inactive); in the assay with OVCAR-5, 46.1 µM (inactive); in the assay on OVCAR-8, 14.9 µM (inactive); in the assay on PC-3, 20.3 µM (inactive). Further, the GI50 in the assay with RXF 393 was 16.1 µM (inactive); with SF-268 it was 9.89 µM (inactive); in the assay on SK-MEL-5, 22.2 µM (inactive); with SK-OV-3, > 86.1 µM (inactive); with SNB-19, 19.9 µM (inactive); in the assay on UACC-62, 25.3 µM (inactive).

Consider `COc1cc(S(=O)(=O)Nc2nc(-c3ccc(N4C(=O)C(CC(=O)O)SC4c4cccs4)cc3)cs2)ccc1Cl` (configuration not stated), for which the GI50 in the assay with A498 was > 100 µM (inactive); in the assay with HCT-15, 19.9 µM; in the assay on HOP-92, 30.9 µM (inactive); in the assay with MCF7, 25 µM (inactive); in the assay on MDA-N it was 43.3 µM (inactive); in the assay with MOLT-4, 29 µM (inactive). Besides, the GI50 in the assay on NCI-H522 is 17.8 µM (inactive); with NCI/ADR-RES it was 29.3 µM (inactive); in the assay on OVCAR-4 it was 26.7 µM (inactive); with OVCAR-5, > 100 µM (inactive); in the assay with OVCAR-8, 39 µM (inactive); in the assay on PC-3, 49.1 µM (inactive). The GI50 in the assay with RXF 393 was 15.7 µM (inactive); in the assay with SF-268, 21.9 µM (inactive); in the assay with SF-539, 27.9 µM (inactive); in the assay on SK-MEL-5, > 100 µM (inactive); in the assay with SK-OV-3, > 100 µM (inactive); with SNB-19, 79.6 µM (inactive). Besides, in the assay with UACC-62, the GI50 is 23.4 µM (inactive).

Turning to `CC(=O)Nc1cc2ccc(=O)oc2cc1Cl`, the GI50 with A498 is > 100 µM (inactive); in the assay with CCRF-CEM, > 100 µM (inactive); in the assay on HCT-15 it was greater than 100 µM; with HOP-92 it was > 100 µM (inactive); in the assay on MCF7, > 100 µM (inactive); in the assay with MDA-N, > 100 µM (inactive). Moreover, the GI50 with MOLT-4, in the assay on NCI-H522, in the assay with NCI/ADR-RES, with OVCAR-4, with OVCAR-5 and in the assay with OVCAR-8 was > 100 µM (inactive) throughout. The GI50 in the assay on PC-3, with RXF 393, in the assay with SF-268, in the assay on SF-539, with SK-MEL-5 and in the assay with SNB-19 was > 100 µM (inactive) in each case. Further, the GI50 with UACC-62 is > 100 µM (inactive).

Take `COc1cc(/C=C2\N=C(c3ccccc3)N(/N=C/c3cc4cc(C)ccc4nc3Cl)C2=O)ccc1O`: the GI50 is 16.6 µM (inactive) in the assay with A498; 16.2 µM (inactive) in the assay on CCRF-CEM; 40.1 µM with HCT-15; 31.6 µM (inactive) in the assay with HOP-92; 25.1 µM (inactive) in the assay on MCF7; 15.9 µM (inactive) in the assay on MDA-N. Also, the GI50 in the assay on MOLT-4 was 23.4 µM (inactive); with NCI/ADR-RES, 31.6 µM (inactive); in the assay on OVCAR-4, 43.8 µM (inactive); with OVCAR-5, > 100 µM (inactive); with OVCAR-8, 49.7 µM (inactive); in the assay with PC-3, 20 µM (inactive). Also, the GI50 in the assay with RXF 393 was 34 µM (inactive); in the assay on SF-268 it was 39.2 µM (inactive); in the assay on SF-539, 35.2 µM (inactive); with SK-MEL-5 it was 37.2 µM (inactive); with SK-OV-3, 88.1 µM (inactive); in the assay on SNB-19 it was 67.8 µM (inactive). For the same molecule, the GI50 in the assay on UACC-62 is 37.7 µM (inactive).

Turning to `CC(=O)OCC1OC(Sc2nc(-c3ccccc3)c(C#N)c(=O)n2C2OC(COC(C)=O)C(OC(C)=O)C(OC(C)=O)C2OC(C)=O)C(OC(C)=O)C(OC(C)=O)C1OC(C)=O` (configuration not stated), the GI50 with A498 was > 100 µM (inactive); in the assay with HCT-15, greater than 100 µM; in the assay with HOP-92, > 100 µM (inactive); in the assay on MCF7, > 100 µM (inactive); in the assay on MDA-N, > 100 µM (inactive); in the assay on MOLT-4, > 100 µM (inactive). For the same molecule, the GI50 with NCI-H522, in the assay on NCI/ADR-RES, in the assay with OVCAR-5, with OVCAR-8, with PC-3 and with RXF 393 was > 100 µM (inactive) each time. For the same molecule, the GI50 in the assay with SF-268, with SF-539, in the assay on SK-MEL-5, with SK-OV-3 and in the assay on UACC-62 was > 100 µM (inactive) each time.

In the case of `Cc1cc(-c2nc3cc(F)ccc3s2)ccc1NC(=O)[C@@H](N)CCCCN`, the GI50 with A498 is 10.2 µM (inactive); with HCT-15, 4.33 µM; in the assay with HOP-92, 13.4 µM (inactive); with MCF7, 0.01 µM (active); with MDA-N, 1.77 µM (inactive); with MOLT-4 it was 1.3 µM (inactive). In addition, the GI50 in the assay on NCI-H522 was 5.46 µM (inactive); in the assay on NCI/ADR-RES, 15.2 µM (inactive); in the assay with OVCAR-4, 2.12 µM (inactive); with OVCAR-5, 0.119 µM (active); with OVCAR-8 it was 4.82 µM (inactive); with PC-3, 8.05 µM (inactive). Moreover, the GI50 in the assay with RXF 393 was 7.26 µM (inactive); with SF-268 it was 6.75 µM (inactive); with SF-539, 4.99 µM (inactive); in the assay with SK-MEL-5, 13.4 µM (inactive); with SK-OV-3, 8.26 µM (inactive); with SNB-19, 10.4 µM (inactive). In the assay on UACC-62, the GI50 was 9.55 µM (inactive).

Regarding `CCSCCC(N)C(=O)O` (configuration not stated), the GI50 in the assay on A498 was > 100 µM (inactive); in the assay with HCT-15, greater than 100 µM; in the assay with HOP-92, > 100 µM (inactive); with MCF7, > 100 µM (inactive); with MDA-N it was > 100 µM (inactive); with MOLT-4, > 100 µM (inactive). The GI50 in the assay with NCI-H522, in the assay on NCI/ADR-RES, in the assay with OVCAR-4, in the assay with OVCAR-5, in the assay with OVCAR-8 and in the assay on PC-3 was > 100 µM (inactive) in each case. Further, the GI50 in the assay with RXF 393, in the assay with SF-268, with SF-539, with SK-MEL-5, in the assay with SK-OV-3 and in the assay with SNB-19 was > 100 µM (inactive) throughout. Also, the GI50 in the assay with UACC-62 was > 100 µM (inactive).

For the molecule `O=C1CCCC(=O)N1n1c(Cc2ccccc2)n[nH]c1=O`, the GI50 is > 100 µM (inactive) with A498; > 100 µM (inactive) with CCRF-CEM; greater than 100 µM in the assay on HCT-15; > 100 µM (inactive) in the assay on HOP-92; > 100 µM (inactive) in the assay on MCF7; > 100 µM (inactive) in the assay on MDA-N. Besides, the GI50 with MOLT-4, with NCI-H522, with NCI/ADR-RES, in the assay with OVCAR-4, in the assay with OVCAR-5 and in the assay on OVCAR-8 was > 100 µM (inactive) throughout. The GI50 in the assay with PC-3, in the assay on RXF 393, with SF-268, in the assay with SK-MEL-5, in the assay with SK-OV-3 and in the assay on UACC-62 was > 100 µM (inactive) each time.

Take `OCCN(CCO)c1ccc2c(c1)Cc1ccccc1-2`: the GI50 in the assay on A498 is 35.1 µM (inactive); in the assay on CCRF-CEM, > 100 µM (inactive); with HCT-15 it was 43.4 µM; with HOP-92, 21.9 µM (inactive); with MCF7, 24.5 µM (inactive); in the assay with MDA-N, 50.6 µM (inactive). Also, the GI50 was 45.8 µM (inactive) with MOLT-4; 46.8 µM (inactive) with NCI/ADR-RES; 57.1 µM (inactive) in the assay with OVCAR-4; 48.3 µM (inactive) in the assay with OVCAR-5; 52.5 µM (inactive) with OVCAR-8; 42.6 µM (inactive) with PC-3. Also, the GI50 is 26.2 µM (inactive) in the assay with SF-268; 42.9 µM (inactive) in the assay with SF-539; 35.7 µM (inactive) in the assay on SK-MEL-5; 50.6 µM (inactive) in the assay with SK-OV-3; > 100 µM (inactive) in the assay with SNB-19; 37.3 µM (inactive) in the assay with UACC-62.

For `Oc1ccc(C(O)C2CCCCN2)cc1O` (configuration not stated) [RIMITEROL HYDROBROMIDE], the GI50 was > 100 µM (inactive) in the assay with A498; greater than 100 µM in the assay with HCT-15; > 100 µM (inactive) in the assay on HOP-92; > 100 µM (inactive) with MCF7; > 100 µM (inactive) with MDA-N; > 100 µM (inactive) with NCI-H522. Also, the GI50 with NCI/ADR-RES, in the assay on OVCAR-4, in the assay on OVCAR-5, in the assay on OVCAR-8, in the assay on PC-3 and with RXF 393 was > 100 µM (inactive) each time. The GI50 with SF-268, in the assay with SF-539, in the assay with SK-MEL-5, in the assay on SK-OV-3, with SNB-19 and in the assay with UACC-62 was > 100 µM (inactive) in each case.
